# Like-named read-outs stand apart in the source and are kept apart here.
# Tests used:
# [1] = target: MEF-IGF1R cells (stable clone transfected with hIGF-1R) (Homo sapiens, UniProt P08069); assay: Proliferation/viability of MEF-IGF1R (Test C), [14C]thymidine incorporation; format: cell-based; conditions: rhIGF1 100 ng/mL, 72 hours, read-out: Test C IC50
# Protocol: C) Measurement of the Proliferation/Viability of MEF-IGF1R
# Cell culture: the MEF-IGF1R cells (stable clone of cells transfected with the receptor hIGF-1R) are cultured at 37° C. under 5% CO2 in EMEM medium containing 10% FCS.
# Test procedure: the cells are seeded at 5000 cells per well in 96-well Cytostar plates (Amersham) with 0.2 mL of EMEM culture medium at 37° C. for 18 hours. The cells are then washed twice with EMEM medium and left to culture without serum for 24 hours. The compounds are then added at various concentrations in the presence of rhIGF1 (100 ng/mL) and 0.1 μCi of Thymidine [^14C] (specific activity ˜50 mCi/mmol) to give 0.2 mL of volume per well. After incubation for 72 hours in the presence of the compound, at 37° C. under 5% CO2, the incorporation of Thymidine [^14C] is measured by counting the radioactivity on a Microbeta trilux counter (Perkin-Elmer). The IC50 is determined from 10 increasing concentrations of the compound.
# (§1) (i) The tests are performed in duplicate and the mean of the two tests is calculated.
# (§2) (ii) The value of the signal of the maximum response is calculated from the positive control: cells stimulated with IGF1 without compound.
# (§3) (iii) Value of the signal of the minimum response is calculated from the negative control: cells not stimulated with IGF1 without compound.
# (§4) (iv) By using these values as maximum (100%) and minimum (0%), respectively, the data were normalized so as to give a percentage of the maximum response.
# (§5) (v) A curve of dose response is plotted and the IC50 (the concentration of which the compound induces a 50% decrease in the signal) of the compound is calculated by non-linear regression analysis.
# [2] = target: T1, IGF-1R (human cytoplasmic domain fused with GST) (Homo sapiens, UniProt P08069); assay: Kinase IGF-1R test (Test A): inhibition of autophosphorylation of the enzyme, HTRF; format: biochemical; conditions: 120 μM ATP
# T1 construct: The human cytoplasmic domain of IGF-1R was cloned by fusion with glutathione S-transferase (GST); made in house; host or cells: SF21 insect cells (baculovirus, pFastBac-GST)
# T1 sequence (P08069 960-1367 limits assumed): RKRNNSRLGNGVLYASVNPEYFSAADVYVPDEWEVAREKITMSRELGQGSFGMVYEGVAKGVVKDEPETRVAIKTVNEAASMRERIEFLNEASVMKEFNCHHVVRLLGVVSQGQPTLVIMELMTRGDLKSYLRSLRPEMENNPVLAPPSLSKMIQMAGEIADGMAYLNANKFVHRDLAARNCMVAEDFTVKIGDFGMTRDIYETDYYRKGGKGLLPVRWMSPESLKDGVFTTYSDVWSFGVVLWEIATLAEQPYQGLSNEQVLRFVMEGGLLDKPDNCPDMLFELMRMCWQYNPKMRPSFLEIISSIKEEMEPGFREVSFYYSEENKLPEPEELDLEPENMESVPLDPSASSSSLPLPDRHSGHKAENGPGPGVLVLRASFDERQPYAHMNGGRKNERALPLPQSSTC
# Protocol: A) Experimental Protocol for the Kinase IGF-1R Test:
# The inhibitory activity of the compounds on IGF1R is determined by measuring the inhibition of autophosphorylation of the enzyme using a time-resolved fluorescence test (HTRF). The human cytoplasmic domain of IGF-1R was cloned by fusion with glutathione S-transferase (GST) in the baculovirus expression vector pFastBac-GST. The protein is expressed in the SF21 cells and purified to about 80% homogeneity. For the enzymatic test, the test compound at 10 mM dissolved in DMSO is diluted in 1/3 steps in a 50 mM Hepes, pH 7.5, 5 mM MnCl2, 50 mM NaCl, 3% Glycerol, 0.025% Tween 20 buffer. To measure the inhibition, the successive dilutions of the compound are preincubated for 30 minutes and 90 minutes in the presence of 5 nM of enzyme, the final DMSO concentration not exceeding 1%. The enzymatic reaction is initiated to have a final ATP concentration of 120 μM, and is stopped after 5 minutes by addition of 100 mM Hepes, pH 7.0 buffer containing 0.4 M of potassium fluoride, 133 mM EDTA, 0.1% BSA, the XL665-labelled antibody anti-GST and the anti-phosphotyrosine antibody conjugated to europium cryptate Eu—K (Cis-Bio Int.). The characteristics of the two fluorophores, XL-665 and Eu—K, are available in G. Mathis et al., Anticancer Research, 1997, 17, pages 3011-3014. The energy transfer between the excited europium cryptate to the acceptor XL665 is proportional to the degree of autophosphorylation of IGF-1R. The specific long-lasting signal of XL-665 is measured in a GENios Pro TECAN plate counter. The inhibition of autophosphorylation of IGF-1R at time 30 minutes and 90 minutes with the test compounds of the invention is calculated relative to a 1% in DMSO control, whose activity is measured in the absence of compound. The curve representing the percentage of inhibition as a function of the log of the concentration is established to determine the concentration corresponding to 50% inhibition (IC50).
# [3] = target: T2, IGF1R in MCF-7 cells (Homo sapiens, UniProt P08069); assay: Autophosphorylation of IGF-1R in MCF7 cells after stimulation with IGF-1 (Test B), ELISA; format: cell-based; conditions: compound added one hour before IGF1 stimulation (10 minutes)
# T2 construct: endogenous in cells; host or cells: MCF-7 cells
# T2 sequence (P08069 31-1367): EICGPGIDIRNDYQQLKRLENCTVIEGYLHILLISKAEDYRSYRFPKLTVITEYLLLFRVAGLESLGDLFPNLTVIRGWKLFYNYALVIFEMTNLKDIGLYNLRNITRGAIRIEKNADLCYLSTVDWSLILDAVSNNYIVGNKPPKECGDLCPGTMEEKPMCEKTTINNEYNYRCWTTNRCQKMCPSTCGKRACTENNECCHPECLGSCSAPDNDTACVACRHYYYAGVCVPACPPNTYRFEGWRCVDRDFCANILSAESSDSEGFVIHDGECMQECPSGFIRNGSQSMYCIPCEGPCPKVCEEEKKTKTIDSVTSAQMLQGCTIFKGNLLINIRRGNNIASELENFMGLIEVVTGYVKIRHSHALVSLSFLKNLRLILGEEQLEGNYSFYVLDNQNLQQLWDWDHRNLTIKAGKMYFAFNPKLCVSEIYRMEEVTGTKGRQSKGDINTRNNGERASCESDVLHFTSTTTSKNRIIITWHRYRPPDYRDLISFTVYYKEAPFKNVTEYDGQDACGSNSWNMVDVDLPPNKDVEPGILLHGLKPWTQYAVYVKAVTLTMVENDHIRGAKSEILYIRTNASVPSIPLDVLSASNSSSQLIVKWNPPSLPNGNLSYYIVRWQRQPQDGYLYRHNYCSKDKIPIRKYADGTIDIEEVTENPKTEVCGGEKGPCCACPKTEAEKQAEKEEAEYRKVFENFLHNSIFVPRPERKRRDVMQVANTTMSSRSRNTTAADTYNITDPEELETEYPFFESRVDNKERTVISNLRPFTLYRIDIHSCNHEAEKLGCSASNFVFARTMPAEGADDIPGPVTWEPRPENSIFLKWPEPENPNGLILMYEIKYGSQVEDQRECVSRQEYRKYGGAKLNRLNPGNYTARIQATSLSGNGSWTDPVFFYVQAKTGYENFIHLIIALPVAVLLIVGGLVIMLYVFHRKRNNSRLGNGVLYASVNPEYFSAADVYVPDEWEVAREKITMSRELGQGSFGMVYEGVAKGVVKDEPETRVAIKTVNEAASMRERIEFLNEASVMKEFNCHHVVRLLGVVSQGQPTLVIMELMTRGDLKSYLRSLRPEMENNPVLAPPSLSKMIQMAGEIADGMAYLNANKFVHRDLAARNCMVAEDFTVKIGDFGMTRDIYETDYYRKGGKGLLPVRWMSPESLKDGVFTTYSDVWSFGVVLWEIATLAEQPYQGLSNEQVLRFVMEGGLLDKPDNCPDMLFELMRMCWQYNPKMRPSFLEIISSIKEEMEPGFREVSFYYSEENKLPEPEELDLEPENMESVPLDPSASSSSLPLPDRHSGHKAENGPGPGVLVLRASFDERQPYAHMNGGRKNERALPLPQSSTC
# Protocol: B) Measurement of the Autophosphorylation of IGF-1r in MCF7 Cells after Stimulation with IGF-1
# Cell Culturing and Execution of the Test:
# The autophosphorylation of IGF1R in the IGF1-induced cells is evaluated by means of an ELISA technique (Enzyme Linked ImmunoSorbent Assay). The MCF-7 are seeded at 60 000 cells per well in 6-well plates and incubated at 37° C., 5% CO2 in medium containing 10% serum. After one night in 10% serum, the cells are deprived of serum for 24 hours. The compounds are added to the medium one hour before stimulation with IGF1. After 10 minutes of stimulation with IGF1, the cells are lysed with a buffer (Hepes 50 mM pH 7.6, Triton X100 1%, orthovanadate 2 mM, protease inhibitor cocktail). The cell lysates are incubated on a 96-well plate precoated with an anti-IGF1R antibody, followed by incubation with an anti-phosphotyrosine antibody coupled to the enzyme peroxidase. The level of peroxidase activity (measured by OD with a luminescent substrate) reflects the phosphorylation status of the receptor.
# as §1, §2, §3, §4, §5
# [4] = preincubation with enzyme 30 minutes, read-out: Test A 30′ IC50
# [5] = preincubation with enzyme 90 minutes, read-out: Test A 90′ IC50
# Sequence of MEF-IGF1R cells (stable clone transfected with hIGF-1R) (P08069 whole entry, change not shown): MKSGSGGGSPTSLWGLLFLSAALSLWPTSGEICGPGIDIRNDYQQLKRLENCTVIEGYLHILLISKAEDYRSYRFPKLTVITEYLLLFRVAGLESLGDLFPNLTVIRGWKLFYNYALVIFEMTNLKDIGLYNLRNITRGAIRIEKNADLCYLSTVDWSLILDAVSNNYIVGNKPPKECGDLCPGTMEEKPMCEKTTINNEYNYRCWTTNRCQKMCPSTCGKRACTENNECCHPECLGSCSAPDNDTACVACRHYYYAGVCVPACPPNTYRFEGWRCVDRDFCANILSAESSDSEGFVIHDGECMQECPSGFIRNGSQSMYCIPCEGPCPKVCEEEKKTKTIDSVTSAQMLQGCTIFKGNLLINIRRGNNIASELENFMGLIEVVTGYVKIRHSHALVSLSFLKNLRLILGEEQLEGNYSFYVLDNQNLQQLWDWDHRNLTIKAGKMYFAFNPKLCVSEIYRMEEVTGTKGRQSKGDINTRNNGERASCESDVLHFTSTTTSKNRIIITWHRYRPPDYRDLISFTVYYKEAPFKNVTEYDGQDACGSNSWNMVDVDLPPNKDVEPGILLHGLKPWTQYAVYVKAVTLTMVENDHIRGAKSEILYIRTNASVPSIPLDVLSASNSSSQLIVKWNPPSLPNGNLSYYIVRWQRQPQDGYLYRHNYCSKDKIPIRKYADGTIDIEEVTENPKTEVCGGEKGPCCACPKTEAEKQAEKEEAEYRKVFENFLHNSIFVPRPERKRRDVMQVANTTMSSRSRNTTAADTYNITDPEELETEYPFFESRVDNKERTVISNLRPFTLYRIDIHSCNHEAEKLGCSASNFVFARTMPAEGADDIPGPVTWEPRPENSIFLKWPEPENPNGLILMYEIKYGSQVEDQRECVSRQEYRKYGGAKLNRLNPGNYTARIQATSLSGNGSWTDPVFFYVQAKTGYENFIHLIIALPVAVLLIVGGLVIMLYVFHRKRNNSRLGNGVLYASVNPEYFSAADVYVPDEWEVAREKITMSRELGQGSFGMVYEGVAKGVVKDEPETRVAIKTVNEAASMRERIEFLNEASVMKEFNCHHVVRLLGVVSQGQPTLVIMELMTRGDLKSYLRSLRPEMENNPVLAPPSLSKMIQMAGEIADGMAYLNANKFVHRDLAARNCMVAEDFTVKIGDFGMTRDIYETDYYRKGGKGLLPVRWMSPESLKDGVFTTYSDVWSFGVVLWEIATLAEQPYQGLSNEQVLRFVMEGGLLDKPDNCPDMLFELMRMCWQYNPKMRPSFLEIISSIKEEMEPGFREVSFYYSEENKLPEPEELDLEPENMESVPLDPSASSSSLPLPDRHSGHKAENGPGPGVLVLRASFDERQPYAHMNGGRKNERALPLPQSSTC
SMILES,"IC50 [2, 4] [nM]","IC50 [2, 5] [nM]",IC50 [3] [nM],GI50 [1] [nM]
"CC(C)(C)c1ccc(N2C(=O)N(Cc3ccnc(NC(=O)NC4CC4)c3)C(C)(C)C2=O)cc1 [Example 13, 1-(4-{[3-(4-tert-butylphenyl)-5,5-dimethyl-2,4-dioxoimidazolidin-1-yl]methyl}pyridin-2-yl)-3-cyclopropylurea]",10 to 100,10 to 100,10 to 100,10 to 100
"CC(C)(C)c1ccc(N2C(=O)N(Cc3ccnc(NC(=O)NC4CCC4)c3)C(C)(C)C2=O)cc1 [Example 14, 1-(4-{[3-(4-tert-butylphenyl)-5,5-dimethyl-2,4-dioxoimidazolidin-1-yl]methyl}pyridin-2-yl)-3-cyclobutylurea]",10 to 100,10 to 100,10 to 100,10 to 100
"CC(C)(C)c1ccc(N2C(=O)N(Cc3ccnc(NC(=O)N4CCC4)c3)C(C)(C)C2=O)cc1 [Example 18, N-(4-{[3-(4-tert-butylphenyl)-5,5-dimethyl-2,4-dioxoimidazolidin-1-yl]methyl}pyridin-2-yl)azetidine-1-carboxamide]",10 to 100,10 to 100,< 10,10 to 100
"CC(C)(C)c1ccc(N2C(=O)N(Cc3ccnc(NC(=O)N4CCCC4)c3)C(C)(C)C2=O)cc1 [Example 19, N-(4-{[3-(4-tert-butylphenyl)-5,5-dimethyl-2,4-dioxoimidazolidin-1-yl]methyl}pyridin-2-yl)pyrrolidine-1-carboxamide]",10 to 100,10 to 100,< 10,10 to 100
"CCCCNC(=O)Nc1cc(CN2C(=O)N(c3ccc(C(C)(C)C)cc3)C(=O)C2(C)C)ccn1 [Example 28, 1-butyl-3-(4-{[3-(4-tert-butylphenyl)-5,5-dimethyl-2,4-dioxoimidazolidin-1-yl]methyl}pyridin-2-yl)urea]",10 to 100,10 to 100,10 to 100,> 100
"CN(C)CC(=O)N1CC(C)(C)c2ccc(N3C(=O)N(Cc4ccnc(Nc5cccnc5)c4)C(C)(C)C3=O)cc21 [Example 31B, 3-[1-(N,N-dimethylglycyl)-3,3-dimethyl-2,3-dihydro-1H-indol-6-yl]-5,5-dimethyl-1-{[2-(pyridin-3-ylamino)pyridin-4-yl]methyl}imidazolidine-2,4-dione]",> 100,10 to 100,10 to 100,< 10
"CN(C)CC(=O)N1CC(C)(C)c2ccc(N3C(=O)N(Cc4ccnc(NC(=O)N(C)C)c4)C(C)(C)C3=O)cc21 [Example 31C, 3-[4-({3-[1-(N,N-dimethylglycyl)-3,3-dimethyl-2,3-dihydro-1H-indol-6-yl]-5,5-dimethyl-2,4-dioxoimidazolidin-1-yl}methyl)pyridin-2-yl]-1,1-dimethylurea]",> 100,> 100,10 to 100,10 to 100
"CC(C)NCC(=O)N1CC(C)(C)c2ccc(N3C(=O)N(Cc4ccnc(Nc5cccnc5)c4)C(C)(C)C3=O)cc21 [Example 31D, 3-[1-(N-isopropylglycyl)-3,3-dimethyl-2,3-dihydro-1H-indol-6-yl]-5,5-dimethyl-1-{[2-(pyridin-3-ylamino)pyridin-4-yl]methyl}imidazolidine-2,4-dione]",> 100,10 to 100,10 to 100,10 to 100
"CC(C)NCC(=O)N1CC(C)(C)c2ccc(N3C(=O)N(Cc4ccnc(NC(=O)N(C)C)c4)C(C)(C)C3=O)cc21 [Example 31E, 3-[4-({3-[1-(N-isopropylglycyl)-3,3-dimethyl-2,3-dihydro-1H-indol-6-yl]-5,5-dimethyl-2,4-dioxoimidazolidin-1-yl}methyl)pyridin-2-yl]-1,1-dimethylurea]",> 100,> 100,10 to 100,10 to 100
"CC(C)(C)c1ccc(N2C(=O)N(Cc3ccnc(Nc4ccc(CN5CCCC5)cc4)c3)C(C)(C)C2=O)cc1 [Example 31F, 3-(4-tert-butylphenyl)-5,5-dimethyl-1-[(2-{[4-(pyrrolidin-1-ylmethyl)phenyl]amino}pyridin-4-yl)methyl]imidazolidine-2,4-dione]",10 to 100,< 10,10 to 100,< 10
"CC(C)(C)c1ccc(N2C(=O)N(Cc3ccnc(Nc4cccc(CN5CCCC5)c4)c3)C(C)(C)C2=O)cc1 [Example 31G, 3-(4-tert-butylphenyl)-5,5-dimethyl-1-[(2-{[3-(pyrrolidin-1-ylmethyl)phenyl]amino}pyridin-4-yl)methyl]imidazolidine-2,4-dione]",10 to 100,< 10,10 to 100,< 10

# Now from value to compound, other results behind:
"IC50 [2, 4] [nM]","IC50 [2, 5] [nM]",IC50 [3] [nM],SMILES,GI50 [1] [nM]
10 to 100,< 10,< 10,"CC(C)(C)c1ccc(N2C(=O)N(Cc3ccnc(Nc4cccc(CCN5CCCC5)c4)c3)C(C)(C)C2=O)cc1 [Example 31H, 3-(4-tert-butylphenyl)-5,5-dimethyl-1-[(2-{[3-(2-pyrrolidin-1-ylethyl)phenyl]amino}pyridin-4-yl)methyl]imidazolidine-2,4-dione]",< 10
> 100,10 to 100,10 to 100,"CC(C)(C)c1ccc(N2C(=O)N(Cc3ccnc(Nc4cccc(F)c4)c3)C(C)(C)C2=O)cc1 [Example 31I, 3-(4-tert-butylphenyl)-1-({2-[(3-fluorophenyl)-amino]pyridin-4-yl}methyl)-5,5-dimethylimidazolidine-2,4-dione]",< 10
10 to 100,< 10,10 to 100,"CC(C)(C)c1ccc(N2C(=O)N(Cc3ccnc(NC4CC4)c3)C(C)(C)C2=O)cc1 [Example 31J, 3-(4-tert-butylphenyl)-1-{[2-(cyclopropylamino)pyridin-4-yl]methyl}-5,5-dimethylimidazolidine-2,4-dione]",10 to 100
10 to 100,10 to 100,< 10,"CC(C)(C)c1ccc(N2C(=O)N(Cc3ccnc(Nc4cccnc4Cl)c3)C(C)(C)C2=O)cc1 [Example 31K, 3-(4-tert-butylphenyl)-1-({2-[(2-chloropyridin-3-yl)amino]pyridin-4-yl}methyl)-5,5-dimethylimidazolidine-2,4-dione]",10 to 100
> 100,10 to 100,10 to 100,"CC(C)(C)c1ccc(N2C(=O)N(Cc3ccnc(Nc4ccc(Cl)nc4)c3)C(C)(C)C2=O)cc1 [Example 31L, 3-(4-tert-butylphenyl)-1-({2-[(6-chloropyridin-3-yl)amino]pyridin-4-yl}methyl)-5,5-dimethylimidazolidine-2,4-dione]",10 to 100

# From patent US7935819B2, “Cyclic urea derivatives, preparation thereof and pharmaceutical use thereof as kinase inhibitors” (Aventis Pharma S.A., priority 2006, dated 2011)
